# Source: patent publication US10590121B2, “Kinase inhibitors and methods for making and using” (Rigel Pharmaceuticals, Inc., priority 2017, dated 2020)
# Experiments:
# [1] = tested on: LPS induced IL-23 (p19/p40) in DC cells differentiated from human PBMC; assay: IL23-p19 ELISA, dendritic cells (DC differentiated from human PBMC), IFNγ primed, LPS stimulated; type: cell-based; conditions: human PBMC-derived dendritic cells, 1 μg/ml LPS, 18 hours, 10 pt
# Description: Compound Screening Using DC Cells
# 1. Differentiation of PBMC's to DC Cells:
# Human PBMC cells (400 million) obtained from the vendor were transferred into a T-175 flask containing 15 ml RPMI media (10% FBS) and incubate for 2 hours at 37° C. After 2 hours, the media including floating cells was aspirated out carefully and 12 ml of fresh RPMI media (10% FBS) containing GMCSF (100 ng/ml) and IL4 (20 ng/ml) was added, and the flask was kept in a 37° C. incubator for 7 days.
# After 3 days, fresh GMCSF (100 ng/ml) and IL4 (20 ng/ml) were added to the flask and the incubation continued. After 7 days, the fully differentiated cells were harvested by spinning down (1200 rpm/5 min) and aspirating the media. The cells were suspended in fresh RPMI media (10% FBS) containing 50 ng/ml IFNγ (1000 U/ml) and then plated (50K/well in 100 μl) onto a white clear bottom 96 well plate and left in a 37° C. incubator for 24 hours.
# 2. Addition of Compounds:
# After 24 hours incubation, 100 μl of RPMI media was added containing 2× concentrated test compound per well to the above cell-culture media (final concentration becomes 1×) and the plates were pre-incubated for 1 hour at 37° C. before stimulating with LPS.
# After 1 hour compound pre-incubation, 10 μl per well of 20× concentrated LPS solution in RPMI media was added to give a final concentration of 1 μg/ml. The mixture was shaken and incubated the plates at 37° C. for an additional 18 hours.
# 155 μl of the supernatant was harvested from each well carefully (without the tip touching the bottom of the well) and to the remaining 50 μl/well of the cell culture plate was added 50 μl of Cell Titer Glo reagent. The mixture was incubated for 1-2 minutes on a shaker and the plate was read for luminescence intensity to determine the compound cytotoxicity. The cell culture supernatant collected above was used to carry out IL23 ELISA (65 μl-Supernatant) and IL10 ELISA (90 μl-Supernatant) as described below.
# Human IL-23 (p19/p40) ELISA Protocol (e-Biosciences)
# To 10.5 ml PBS add 50 μl of anti-IL23 (p19) was added capture antibody (2.5 μg/ml). The mixture was mixed well and 100 μl of the coating solution was added to each well of the 96 well white plates from Pierce. The wells were covered and incubated overnight at 4° C.
# The anti-IL23 (p19)-antibody-coated plates were washed 2× using TBST (use plate washer) and blocked using 200 μl of 0.5% Casein for 1.5-2 hours at room temperature with shaking.
# The plates were washed 2× using TBST and the supernatant was transferred (65 μl/well) to the above pre-blocked/IL23 (p19)-antibody-coated 96 well plate, and incubated at room temperature for 1.5 hours with shaking.
# The plates were washed 4× using TBST (plate washer) and 100 μl/well detection antibody solution prepared from 2 μl of biotin labeled anti-IL-12 (p40/p70) antibody in 11 ml 1% BSA/PBS solution (1-5000 dilution) was added. The plates were incubated for 1 hour with shaking at room temperature.
# Again, the plates were washed 4× with TBST and 100 μl of HRP labeled Streptavidin (R&D Systems) solution (10 μl/10 ml 1% BSA solution) was added, and the plates were incubated at room temperature for another 45 minutes with shaking.
# After 45 minutes, the plates were washed with TBST 4× and 100 ul/well Super Signal ELISA Pico Chemiluminescent Substrate from Pierce (3.5 ml A+3.5 ml B+3.5 ml MQ water) was added. The plates were shaken for 1-2 minutes then read on a plate reader.
# [2] = tested on: LPS induced IL23p19 in THP-1 cells; assay: LPS Induced IL23p19 in THP-1 Cells (with IFNγ Primed) Assay; type: cell-based; conditions: Homo sapiens; THP-1 cells primed with IFNγ 50 ng/mL, 1 μg/mL LPS, 18 hours, 10 pt; read-out: IL23-p19 ELISA, THP1-IFNy, LPS, 10 pt EC50
# Source text: LPS Induced IL23p19 in THP-1 Cells (with IFNγ Primed) Assay
# THP-1 Cells (ATCC, Cat # TIB-202), Dimethyl Sulfoxide (DMSO) (Sigma-Aldrich, Cat # D2650), RPMI 1640 (Cellgro, Cat #10-040-CM), Fetal Bovine Serum (Sigma, Cat # F4135), Albumin From Bovine Serum (BSA) (Sigma-Aldrich, Cat # A7906), LPS (Serotype K-235, Sigma, Product Number L 2143), IFNγ (Peprotech, Cat #300-02), Capture antibody: Human IL-23p19 ELISA (e-Bioscience, Cat. #14-7238-85), Detection antibody: Primary Mouse Biotinylated anti-human IL-12 (p40/p70) (e-Bioscience, Cat. #13-7129-85), Secondary HRP-conjugated Streptavidin (R&D Systems, Cat # DY998), 1×PBST Washing Buffer (PBS-Tween tablet) (VWR International, Cat #80058-558), ELISA Blocking Buffer (PBS with 1% BSA), ELISA Dilution Buffer (PBS with 1% BSA), 384 Well Flat-Bottom, MaxiSorp Black Immuno Plates (Thermo Scientific, Cat #12-565-346), 384 Well Flat-Bottom, White Tissue Culture Plates (Thermo Scientific, Cat #12-565-343), Super Signal ELISA Pico Chemiluminescent Substrate (Thermo Scientific, Cat #37070), Cell Titer Glo reagent (Promega, Cat # G7573), Positive control, IKK2VI inhibitor (Calbiochem, Cat #401483), AquaMax 4000 plate washer (Molecular Devices), Luminometer, Wallac Victor2 1420 Multilabel Counter.
# On day 1, 50K/well THP-1 cells were seeded and primed with IFNγ (50 ng/mL) in 384-well plates for about 18 hours in RPMI media with 10% FBS. On day 2, the compound was serially diluted in DMSO from 5 mM in 3-fold dilutions, and then diluted 1:125 in RPMI media with 10% FBS. 50 μL/well 2× compound was added to 50 μL/well THP-1 cells (with IFNγ primed) in duplicate in 384 well tissue culture plates. The cells were pre-incubated with compound for 1 hour at 37° C., 5% CO2 before addition of 10 μL/well 11×LPS to give a final concentration of 1 μg/mL LPS. Day 3, after stimulation for 18 hours at 37° C., 5% CO2, the assay plate was centrifuged and 70 μL/well supernatant was harvested. IL-23p19 protein in 70 μL/well of supernatant was measured by sandwich ELISA, and 25 μl/well Cell Titer Glo reagent was added to the remaining cells to measure compound toxicity.
# Human IL-23p19 Sandwich ELISA:
# Maxisorp immuno ELISA plates were pre-coated with 25 μL/well of anti-IL-23p19 capture antibody (2.5 ug/mL) in PBS overnight at room temperature. After washing with 1×PBST, the plates were blocked using 100 μL/well of 1% BSA in PBS for 2 hours at room temperature. The plates were washed three times with 1×PBST and 70 μL/well supernatant were added. The plates were incubated at room temperature for 2 hours with shaking and washed three times with 1×PBST. 25 μL/well of biotin labeled anti-IL-12 (p40/p70) detection antibody (100 ng/mL) in PBS with 1% BSA was added and the plates were incubated at room temperature for 2 hours with shaking. After washing three times with 1×PBST, 25 μL/well of streptavidin-HRP (1:200) in PBS with 1% BSA was added and the plates were incubated at room temperature for 20 minutes with shaking. The plates were washed three times with 1×PBST and 25 μL/well of Super Signal ELISA Pico Chemiluminescent Substrate were added. The plates were read with a luminometer, and the chemiluminescence values were entered into Athena (Rigel) for curve fitting, EC50 calculation, and database storage.
Structure (SMILES),EC50 [1] [µM],EC50 [2] [µM]
"O=C(Nc1ccc(N2CCOCC2)cc1N1CCOCC1)c1csc(-c2cn[nH]c2)n1 [I-15, N-(2,4-dimorpholinophenyl)-2-(1H-pyrazol-4-yl)thiazole-4-carboxamide]",0.484,0.173
"CC1(O)CCN(c2cc(N3CCOCC3)ccc2NC(=O)c2cccc(-c3cn[nH]c3)n2)CC1 [I-16, N-(2-(4-hydroxy-4-methylpiperidin-1-yl)-4-morpholinophenyl)-6-(1H-pyrazol-4-yl)picolinamide]",1.72,0.741
"CC1(O)CCN(c2cc(N3CCOCC3)ccc2NC(=O)c2ccc(-c3cn[nH]c3)o2)CC1 [I-17, N-(2-(4-hydroxy-4-methylpiperidin-1-yl)-4-morpholinophenyl)-5-(1H-pyrazol-4-yl)furan-2-carboxamide]",0.166,0.216
"CC1(O)CCN(c2cc(N3CCOCC3)ccc2NC(=O)c2csc(-c3cn[nH]c3)n2)CC1 [I-18, N-(2-(4-hydroxy-4-methylpiperidin-1-yl)-4-morpholinophenyl)-2-(1H-pyrazol-4-yl)thiazole-4-carboxamide]",0.105,0.0951
"O=C(Nc1ccc(N2CCOCC2)cc1N1CCC(F)(F)CC1)c1ccc(-c2cn[nH]c2)o1 [I-20, N-(2-(4,4-difluoropiperidin-1-yl)-4-morpholinophenyl)-5-(1H-pyrazol-4-yl)furan-2-carboxamide]",1.12,2.33
"O=C(Nc1ccc(N2CCOCC2)cc1N1CCC(F)(F)CC1)c1csc(-c2cn[nH]c2)n1 [I-21, N-(2-(4,4-difluoropiperidin-1-yl)-4-morpholinophenyl)-2-(1H-pyrazol-4-yl)thiazole-4-carboxamide]",1,0.465
"O=C(Nc1ccc(N2CCOCC2)cc1N1CCCC1)c1cccc(-c2cn[nH]c2)n1 [I-22, N-(4-morpholino-2-(pyrrolidin-1-yl)phenyl)-6-(1H-pyrazol-4-yl)picolinamide]",16.4,3.23
"O=C(Nc1ccc(N2CCOCC2)cc1N1CCCC1)c1ccc(-c2cn[nH]c2)o1 [I-23, N-(4-morpholino-2-(pyrrolidin-1-yl)phenyl)-5-(1H-pyrazol-4-yl)furan-2-carboxamide]",2.27,2.86
"O=C(Nc1ccc(N2CCOCC2)cc1N1CCCC1)c1csc(-c2cn[nH]c2)n1 [I-24, N-(4-morpholino-2-(pyrrolidin-1-yl)phenyl)-2-(1H-pyrazol-4-yl)thiazole-4-carboxamide]",0.794,0.836
"O=C(Nc1cc(N2CCOCC2)ccc1N1CCCCC1)c1ccc(-c2cn[nH]c2)o1 [I-25, N-(5-morpholino-2-(piperidin-1-yl)phenyl)-5-(1H-pyrazol-4-yl)furan-2-carboxamide]",0.532,0.645
"O=C(Nc1cc(N2CCOCC2)ccc1N1CCCCC1)c1csc(-c2cn[nH]c2)n1 [I-26, N-(5-morpholino-2-(piperidin-1-yl)phenyl)-2-(1H-pyrazol-4-yl)thiazole-4-carboxamide]",0.847,0.554
"O=C(Nc1cc(OCCN2CCOCC2)ccc1N1CCCCC1)c1cccc(-c2cn[nH]c2)n1 [I-27, N-(5-(2-morpholinoethoxy)-2-(piperidin-1-yl)phenyl)-6-(1H-pyrazol-4-yl)picolinamide]",0.857,2.99
"O=C(Nc1cc(OCCN2CCOCC2)ccc1N1CCCCC1)c1ccc(-c2cn[nH]c2)o1 [I-28, N-(5-(2-morpholinoethoxy)-2-(piperidin-1-yl)phenyl)-5-(1H-pyrazol-4-yl)furan-2-carboxamide]",0.0638,0.189
"O=C(Nc1cc(OCCN2CCOCC2)ccc1N1CCCCC1)c1csc(-c2cn[nH]c2)n1 [I-29, N-(5-(2-morpholinoethoxy)-2-(piperidin-1-yl)phenyl)-2-(1H-pyrazol-4-yl)thiazole-4-carboxamide]",0.0512,0.105
"O=C(Nc1cc(CCN2CCOCC2)c(F)cc1N1CCCCC1)c1ccc(-c2cn[nH]c2)o1 [I-31, N-(4-fluoro-5-(2-morpholinoethyl)-2-(piperidin-1-yl)phenyl)-5-(1H-pyrazol-4-yl)furan-2-carboxamide]",0.0638,17.2
"O=C(Nc1cc(CCN2CCOCC2)c(F)cc1N1CCCCC1)c1csc(-c2cn[nH]c2)n1 [I-32, N-(4-fluoro-5-(2-morpholinoethyl)-2-(piperidin-1-yl)phenyl)-2-(1H-pyrazol-4-yl)thiazole-4-carboxamide]",0.325,0.173
"O=C(Nc1cc(C(F)(F)CN2CCOCC2)ccc1N1CCCCC1)c1ccc(-c2cn[nH]c2)o1 [I-34, N-(5-(1,1-difluoro-2-morpholinoethyl)-2-(piperidin-1-yl)phenyl)-5-(1H-pyrazol-4-yl)furan-2-carboxamide]",6.62,1.54
